In patent US4920016A, “Liposomes with enhanced circulation time” (Linear Technology, Inc., priority 1987, dated 1990):

Assay: Uptake of doxorubicin into J6456 mouse tumors
Details: in vivo, J6456 mice, IV, fluorometric (Table 14), read-out: Percent of Injected Dose (DXR)/q Tumor (SD)
Protocol: Sized MLVs having one of the three lipid compositions shown in Table 14 below were prepared as above. Doxorubicin was included in the hydration buffer, at a concentration of about 5 mg/ml, and free drug was removed from the sized liposomes by gel filtration.
Mice innoculated with J6456 lymphoma cells were injected IV with the MLVs (1 umole phospholipid/animal) or with an equivalent amount of free doxorubicin. Tissue distribution of the drug, 24 hours post administration, was determined fluorometrically, with the results shown in Tables 13 below.

Compound `COc1cccc2c1C(=O)c1c(O)c3c(c(O)c1C2=O)C[C@@](O)(C(=O)CO)C[C@@H]3O[C@H]1C[C@H](N)[C@H](O)[C@H](C)O1` [FREE DXR, doxorubicin] has a tissue uptake at 24 h of 0.4 %ID/g.
